Like-named read-outs stand apart in the source and are kept apart here.
How the values were obtained:
[1] = system: dogs; conditions: cited from earlier work
[2] = system: phospholipidosis (PLD); assay: in vitro PLD screen; assay type: cell-based; conditions: read-out: EC50 (phospholipogenic, in vitro)
[3] = system: rats; conditions: cited from earlier work

CCCCc1oc2ccccc2c1C(=O)c1cc(I)c(OCCN(CC)CC)c(I)c1 [amiodarone]
corneal microdeposits (incidence) ([1]; after 6 weeks): 1 of 6
alteration in the retina or optic nerve ([1]; after 11 weeks of dosing): did not cause any alteration in the retina or optic nerve

CCN(CC)CCCC(C)Nc1ccnc2cc(Cl)ccc12 (stereo not drawn) [chloroquine]
EC50 [2]: < 20 µM

CN(C)CCCC1(c2ccc(F)cc2)OCc2cc(C#N)ccc21 (stereo not drawn) [citalopram]
PLD in nervous tissues [3]: caused PLD in 1 sympathetic ganglion, none or very weak PLD in retinal and trigeminal ganglia, and hypothalamic neurosecretory perikarya
PLD [1]: did not cause PLD

CNCCC(Oc1ccc(C(F)(F)F)cc1)c1ccccc1 (stereo not drawn) [fluoxetine]
PLD in nervous tissues [3]: caused PLD in retinas
PLD-like vacuolation in nerve cells [3]: PLD-like vacuolation in nerve cells in the thalamus, cerebellum, spinal cord and ganglion
neuronal degeneration or neurological findings ([1]; after 1 year of dosing): no neuronal degeneration or neurological findings were observed

CN(C)CCCN1c2ccccc2CCc2ccccc21 [imipramine]
PLD in nervous tissues [3]: caused PLD in retina and DRG

C1CCC(C(CC2CCCCN2)C2CCCCC2)CC1 (stereo not drawn) [perhexiline]
EC50 [2]: < 20 µM

CC[C@@H]([C@H](C)O)n1ncn(-c2ccc(N3CCN(c4ccc(OC[C@@H]5CO[C@@](Cn6cncn6)(c6ccc(F)cc6F)C5)cc4)CC3)cc2)c1=O [posaconazole]
PLD ([1]; chronic administration): caused PLD in DRG and medulla oblongata neurons in the brain
neuronal degeneration or necrosis ([1]; chronic administration): no evidence of neuronal degeneration or necrosis

Source: publication PMC4000071 (Journal of Toxicologic Pathology, 2014)
